Assay results as given in ChEMBL document CHEMBL4483862, “Open-source discovery of chemical leads for next-generation chemoprotective antimalarials” (2018).

Tested on: Plasmodium berghei
Test: Luciferase/luciferin-expressing antifolate-resistant parasites were used to infect a culture of HepG2 cells that were pre-incubated with compounds. Infected hepatocytes emit light due to the luciferase reaction. Assay results are presented as the percent inhibition of light emission compared to control. […]
Assay type: functional
Details: sporozoite; for IC90: read-out: LUCIFERASE INFECTION ASSAY - IC90

Row | Compound | IC90 | also measured
1 | CCOC(=O)Cc1ccc(NC(=O)c2ccc(C(C)(C)C)cc2)cc1 | 2.02 µM | IC50 (HEPG2TOX_HILL_SLOPE 1.28, HEPG2TOX_R_SQUARED 0.763, PBLUC_HILL_SLOPE 1.21, PBLUC_R_SQUARED 0.784, read-out: LUCIFERASE INFECTION ASSAY - IC50): 0.329 µM
2 | CC(C)(C)c1cc(C(=O)/C(C#N)=N/Nc2ccc(Cl)cc2)no1 | 4.32 µM | IC50 (HEPG2TOX_HILL_SLOPE 1.26, HEPG2TOX_R_SQUARED 0.947, PBLUC_HILL_SLOPE 9.91, PBLUC_R_SQUARED 0.6, read-out: LUCIFERASE INFECTION ASSAY - IC50): 3.46 µM
3 | Cc1cnc(C(=O)NNC(=O)CC23CC4CC(CC(C4)C2)C3)cn1 | 9.85 µM | IC50 (HEPG2TOX_HILL_SLOPE 1.28, HEPG2TOX_R_SQUARED 0.86, PBLUC_HILL_SLOPE 19.8, PBLUC_R_SQUARED 0.188, read-out: LUCIFERASE INFECTION ASSAY - IC50): 8.81 µM
4 | CC(=O)O/N=C1/CCn2c1c(C)c1ccccc12 | 5.74 µM | IC50 (HEPG2TOX_HILL_SLOPE 1.28, HEPG2TOX_R_SQUARED 0.99, PBLUC_HILL_SLOPE 11.8, PBLUC_R_SQUARED 0.596, read-out: LUCIFERASE INFECTION ASSAY - IC50): 4.77 µM
5 | COc1cccc(C(=O)Nc2nc3ccc(Br)cn3n2)c1 | > 9.51 µM | IC50 (HEPG2TOX_HILL_SLOPE 1.29, HEPG2TOX_R_SQUARED 0.954, read-out: LUCIFERASE INFECTION ASSAY - IC50): > 9.51 µM
6 | COc1ccc(-c2csc(NC(=O)CN3CCN(c4ncnc5c4cnn5C)CC3)n2)cc1 | 3.88 µM | IC50 (HEPG2TOX_HILL_SLOPE 1.28, 1.59, HEPG2TOX_R_SQUARED 0.849, 0.471, PBLUC_HILL_SLOPE 15.7, 12.8, PBLUC_R_SQUARED 0.495, 0.575, read-out: LUCIFERASE INFECTION ASSAY - IC50): 3.31 µM
7 | CC(C)CC(=O)NC(=S)Nc1ccc(S(=O)(=O)N(C)Cc2ccccc2)cc1 | 4.58 µM | IC50 (HEPG2TOX_HILL_SLOPE 1.27, HEPG2TOX_R_SQUARED 0.987, PBLUC_HILL_SLOPE 1.32, PBLUC_R_SQUARED 0.74, read-out: LUCIFERASE INFECTION ASSAY - IC50): 0.868 µM
8 | CCCCC(CC)C[n+]1c(C)cc(C=C2Sc3ccccc3N2CC)cc1C (configuration not stated) | 0.111 µM | IC50 (HEPG2TOX_HILL_SLOPE 1.26, HEPG2TOX_R_SQUARED 0.976, PBLUC_HILL_SLOPE 1.65, PBLUC_R_SQUARED 0.944, read-out: LUCIFERASE INFECTION ASSAY - IC50): 0.0293 µM
9 | Cc1cc(=O)nc(N/N=C/c2ccccc2O)[nH]1 | > 13.5 µM | IC50 (HEPG2TOX_HILL_SLOPE 1.27, HEPG2TOX_R_SQUARED 0.681, PBLUC_HILL_SLOPE 2.52, PBLUC_R_SQUARED 0.516, read-out: LUCIFERASE INFECTION ASSAY - IC50): 6.93 µM
10 | COc1cc(OC)c(NC(=O)CN2CCN(Cc3csc4ccccc34)CC2)cc1Cl | 9.45 µM | IC50 (HEPG2TOX_HILL_SLOPE 1.28, HEPG2TOX_R_SQUARED 0.885, PBLUC_HILL_SLOPE 11.3, PBLUC_R_SQUARED 0.661, read-out: LUCIFERASE INFECTION ASSAY - IC50): 7.79 µM
11 | COc1cccc(CN2CCN3C(C(=O)Nc4ccc(F)c(Cl)c4)=COC3=NC2=O)c1 | > 10 µM | IC50 (HEPG2TOX_HILL_SLOPE 1.28, HEPG2TOX_R_SQUARED 0.654, PBLUC_HILL_SLOPE 1.61, PBLUC_R_SQUARED 0.572, read-out: LUCIFERASE INFECTION ASSAY - IC50): 3.18 µM
12 | Cc1cc(C(=O)Nc2nc3ccc(Cl)cc3s2)c2c(C)nn(C)c2n1 | 9.09 µM | IC50 (HEPG2TOX_HILL_SLOPE 1.29, HEPG2TOX_R_SQUARED 0.966, PBLUC_HILL_SLOPE 2.52, PBLUC_R_SQUARED 0.194, read-out: LUCIFERASE INFECTION ASSAY - IC50): 3.81 µM
13 | Nc1ncc(-c2cccc(OC(F)(F)F)c2)cc1-c1cccnc1 | > 9.96 µM | IC50 (HEPG2TOX_HILL_SLOPE 1.26, HEPG2TOX_R_SQUARED 0.924, PBLUC_HILL_SLOPE 2.1, PBLUC_R_SQUARED 0.295, read-out: LUCIFERASE INFECTION ASSAY - IC50): 5.18 µM
14 | COc1cc(C)c(CN2CCC(c3nc4ccccc4s3)CC2)cc1OC | 5.49 µM | IC50 (HEPG2TOX_HILL_SLOPE 1.28, HEPG2TOX_R_SQUARED 0.688, PBLUC_HILL_SLOPE 2.8, PBLUC_R_SQUARED 0.756, read-out: LUCIFERASE INFECTION ASSAY - IC50): 2.5 µM
15 | CCOC(=O)c1[nH]c(C)c(C(=O)/C=C/c2c(C)nn3c(C(F)(F)F)ccnc23)c1C | 0.365 µM | IC50 (HEPG2TOX_HILL_SLOPE 1.29, HEPG2TOX_R_SQUARED 0.824, PBLUC_HILL_SLOPE 0.936, PBLUC_R_SQUARED 0.825, read-out: LUCIFERASE INFECTION ASSAY - IC50): 0.0349 µM
16 | Cc1cc(C(=O)NNC(=O)c2c(C)nc3ccccn23)c2nc3n(c2n1)CCCCC3 | 0.662 µM | IC50 (HEPG2TOX_HILL_SLOPE 1.28, HEPG2TOX_R_SQUARED 0.815, PBLUC_HILL_SLOPE 3.27, PBLUC_R_SQUARED 0.895, read-out: LUCIFERASE INFECTION ASSAY - IC50): 0.338 µM

Row | Compound | IC90 | also measured
17 | Cc1cc(C(=O)COc2ccc(C(N)=O)cc2)c(C)n1-c1ccc2c(c1)OCO2 | 5.43 µM | IC50 (HEPG2TOX_HILL_SLOPE 1.28, HEPG2TOX_R_SQUARED 0.792, PBLUC_HILL_SLOPE 4.73, PBLUC_R_SQUARED 0.266, read-out: LUCIFERASE INFECTION ASSAY - IC50): 3.41 µM
18 | Cc1ccc(Nc2nccc(C(F)(F)F)n2)cc1S(=O)(=O)N(C)C | > 10 µM | IC50 (HEPG2TOX_HILL_SLOPE 1.28, HEPG2TOX_R_SQUARED 0.583, PBLUC_HILL_SLOPE 1.84, 1.48, PBLUC_R_SQUARED 0.674, 0.430, read-out: LUCIFERASE INFECTION ASSAY - IC50): 4.96 µM
19 | COc1ccc2c(-c3sc(Nc4ccc(C(C)C)cc4)c(-c4nc5ccccc5s4)c3N)cc(=O)oc2c1 | 2.94 µM | IC50 (HEPG2TOX_HILL_SLOPE 1.27, HEPG2TOX_R_SQUARED 0.95, PBLUC_HILL_SLOPE 4.32, PBLUC_R_SQUARED 0.419, read-out: LUCIFERASE INFECTION ASSAY - IC50): 1.76 µM
20 | CC(C)c1ccc(/C=C/c2ccc(=O)[nH]n2)cc1 | 0.563 µM | IC50 (HEPG2TOX_HILL_SLOPE 1.26, HEPG2TOX_R_SQUARED 0.973, PBLUC_HILL_SLOPE 20.6, PBLUC_R_SQUARED 0.746, read-out: LUCIFERASE INFECTION ASSAY - IC50): 0.506 µM
21 | Nc1nc2ccc(C(=O)N3CCN(C/C=C/c4ccccc4)CC3)cc2s1 | > 10 µM | IC50 (HEPG2TOX_HILL_SLOPE 1.29, HEPG2TOX_R_SQUARED 0.665, PBLUC_HILL_SLOPE 22.8, PBLUC_R_SQUARED 0.0313, read-out: LUCIFERASE INFECTION ASSAY - IC50): > 10 µM
22 | COc1ccc(-c2nnc(SC(C)C(=O)NCCC3=CCCCC3)[nH]2)cc1 (configuration not stated) | 0.379 µM | IC50 (HEPG2TOX_HILL_SLOPE 1.28, HEPG2TOX_R_SQUARED 0.906, PBLUC_HILL_SLOPE 22.1, PBLUC_R_SQUARED 0.622, read-out: LUCIFERASE INFECTION ASSAY - IC50): 0.343 µM
23 | CCOC(=O)c1c(C)nn(-c2ncccc2NC(=O)Nc2cccc(Cl)c2Cl)c1C | > 7.36 µM | IC50 (HEPG2TOX_HILL_SLOPE 1.28, HEPG2TOX_R_SQUARED 0.665, PBLUC_HILL_SLOPE 11.5, PBLUC_R_SQUARED 0.0917, read-out: LUCIFERASE INFECTION ASSAY - IC50): 6.84 µM
24 | Cc1ccc2c(c1)nc1n2CN(CCN2CCOCC2)CN1Cc1ccccc1 | 1.1 µM | IC50 (HEPG2TOX_HILL_SLOPE 1.27, HEPG2TOX_R_SQUARED 0.847, PBLUC_HILL_SLOPE 11.9, PBLUC_R_SQUARED 0.472, read-out: LUCIFERASE INFECTION ASSAY - IC50): 0.911 µM
25 | CCOC(=O)c1sc(N)c(C#N)c1CSc1nnc(Nc2ccc(CC)cc2)s1 | 5.14 µM | IC50 (HEPG2TOX_HILL_SLOPE 1.26, HEPG2TOX_R_SQUARED 0.992, PBLUC_HILL_SLOPE 3.19, PBLUC_R_SQUARED 0.556, read-out: LUCIFERASE INFECTION ASSAY - IC50): 2.58 µM
26 | COc1ccc(C(=O)COC(=O)Cc2cccc(C(F)(F)F)c2)cc1 | 1.69 µM | IC50 (HEPG2TOX_HILL_SLOPE 1.29, HEPG2TOX_R_SQUARED 0.956, PBLUC_HILL_SLOPE 8.73, PBLUC_R_SQUARED 0.385, read-out: LUCIFERASE INFECTION ASSAY - IC50): 1.32 µM
27 | O=C(NCCCn1cnc2ccccc21)c1ccc(Oc2ccc(F)cc2)cc1 | > 10 µM | IC50 (HEPG2TOX_HILL_SLOPE 1.27, HEPG2TOX_R_SQUARED 0.899, PBLUC_HILL_SLOPE 1.4, PBLUC_R_SQUARED 0.524, read-out: LUCIFERASE INFECTION ASSAY - IC50): 5.3 µM
28 | NC(=O)c1ccsc1NC(=O)CSc1ncc(-c2ccccc2)n1-c1ccccc1 | 3.1 µM | IC50 (HEPG2TOX_HILL_SLOPE 1.27, HEPG2TOX_R_SQUARED 0.954, PBLUC_HILL_SLOPE 1.14, PBLUC_R_SQUARED 0.72, read-out: LUCIFERASE INFECTION ASSAY - IC50): 0.447 µM
29 | N#CCCNS(=O)(=O)c1cccc(C(=O)Nc2ccc(Nc3ccccc3)cc2)c1 | 4.83 µM | IC50 (HEPG2TOX_HILL_SLOPE 1.27, HEPG2TOX_R_SQUARED 0.641, PBLUC_HILL_SLOPE 2.13, PBLUC_R_SQUARED 0.388, read-out: LUCIFERASE INFECTION ASSAY - IC50): 1.72 µM
30 | O=C(Cc1ccc(O)cc1)N1CCc2nc(NCc3cccc(Oc4ccccc4)c3)ncc2C1 | 4.97 µM | IC50 (HEPG2TOX_HILL_SLOPE 1.26, HEPG2TOX_R_SQUARED 0.949, PBLUC_HILL_SLOPE 2.67, PBLUC_R_SQUARED 0.466, read-out: LUCIFERASE INFECTION ASSAY - IC50): 2.18 µM
31 | COc1ccc(/C(C#N)=C/c2ccccc2OC)cc1 | 2.26 µM | IC50 (HEPG2TOX_HILL_SLOPE 1.28, HEPG2TOX_R_SQUARED 0.968, PBLUC_HILL_SLOPE 1.65, PBLUC_R_SQUARED 0.898, read-out: LUCIFERASE INFECTION ASSAY - IC50): 0.597 µM
